The record followed here is patent US20100130604A1, “USE OF ROSMARINIC ACID IN MANUFACTURE OF MEDICAMENTS FOR TREATING OR PREVENTING HEPATIC AND RENAL DISEASES” (SHANGDONG LUYE NATURAL DRUG RESEARCH AND DEVELOPMENT CO., …, priority 2006, published 2010).

Common to all, as to format: in vivo, Sprague Dawley rats
The test system of test [1] is CRF rats. The test can be described thus: CRF induced by 5/6 nephrectomy in rats. To be noted: 8 weeks; p.o. 12 mg/kg. How it is done:
130 rats were randomly divided into 13 groups, with 10 animals in each group, namely, a normal control group, a model group, methylprednisolone p.o. Group at 12 mg/kg, RA i.v. groups at 2.5 mg/kg, 5 mg/kg, 25 mg/kg, 75 mg/kg, and 150 mg/kg of RA, and RA p.o. groups at 5 mg/kg, 10 mg/kg, 50 mg/kg, 150 mg/kg, and 300 mg/kg of RA. Apart from the normal control group, all other rats were induced to CRF by cutting off 5/6 of the kidneys. 2/3 of the left kidney was removed in the first operation, and one week later the right kidney in the second operation. Dosing started one week after the second operation via p.o. or i.p. routes. Blood was collected from eyepit at week 4 and week 8 to determine creatinine and urea nitrogen levels in sera. 5 animals in each group were sacrificed at week 4 and […] were sacrificed at the end of the study. Pathological changes in renal function were observed through HE and PAS staining of histopathological sections.

In test [2] the test system is CRF rats. The test can be described thus: CRF induced by 5/6 nephrectomy in rats. To be noted: p.o. 12 mg/kg.
Test [3] deals with hepatofibrosis in rats. The test can be described thus: CCl4-induced hepatofibrosis in chronic hepatitis in rats. To be noted: hepatic; 8 mg/kg, 6 weeks. How it is done: 120 rats were randomly divided into 12 groups, with 10 in each group, namely, a normal control group, a model group, […] Apart from the normal control group, all rats were s.c. injected 0.3 ml of 40% solution of CC14 in oil per 100 g of body weight once every 3 days for 6 weeks. Animals in the normal control group were s.c. injected 0.3 ml/100 g body weight of oil vehicle following the same schedule as the experimental groups. First dose was doubled for all animals. Six weeks later, drugs were continuously administered to animals in each group for 6 weeks. After the administration was completed, all animals were anaesthetised with i.p. injection of 20% ethyl carbamate solution (Beijing Tongxian District Yucai Fine Chemicals). Blood was collected from abdominal aorta. Hepatic lobule tissue was removed, part of which was fixed with 10% neutral foinialin solution and made into wax blocks within 24-48 hours. […] Serum HA, LN, Pc III levels and hepatic HYP level were determined according to the respective kit instructions.

For test [4], the system named is rats with diabetic nephropathy. Put plainly: Diabetic nephropathy in rats (left nephrectomy + streptozocin). The following applies: p.o. 10 mg/kg; for creatinine: serum. The procedure: After 1 week-long acclimation period, animals were anaesthetised with 10% chloral hydrate (0.35 mL/100 g, i.p.) and nephrectomy was exercised to the left kidney. One week later, a single dose of 1% of streptozocin solution was i.v. injected to all animals at 60 mg/kg. After 72h, blood was collected from eyepit to test blood glucose level with the above-mentioned kit. The model was considered successful when blood glucose level >16.7 mmol/L. When the model is established, 130 rats were randomly divided into 13 groups, with 10 animals in each group, namely, a normal control group, a model group, benzanapril p.o. Group at 10 mg/kg, RA i.v. groups at 2.5 mg/kg, 5 mg/kg, 25 mg/kg, 75 mg/kg, and 150 mg/kg of RA, and RA p.o. groups at 5 mg/kg, 10 mg/kg, 50 mg/kg, 150 mg/kg, and 300 mg/kg of RA. The drugs were administered once every day. Blood was collected from eyepit at week 8 and week 16 to determine serum levels of creatinine and urea nitrogen. Urinary protein excretion within 24 hours was also studied. The animals were sacrificed 24 hours after the last dose and kidney removed for histopathological examination.

The test system of test [5] is renal interstitial fibrosis in rats. Put plainly: Renal interstitial fibrosis in rats with unilateral urethral obstruction. To be noted: day 10. The procedure:
130 rats were randomly divided into 13 groups, namely, a sham operation group, a model group, benazapril p.o. Group at 10 mg/kg, RA i.v. groups at 2.5 mg/kg, 5 mg/kg, 25 mg/kg, 75 mg/kg, and 150 mg/kg of RA, and RA p.o. groups at 2.5 mg/kg, 5 mg/kg, 25 mg/kg, 150 mg/kg, and 300 mg/kg of RA. The animals were acclimated for a week before they were all anaesthetised with an i.p. dose of 10% chloral hydrate at 3.0mL/kg and placed on the operating table in right lateral position. The rats were shaved and the operating area was disinfected using iodine tincture and 75% ethanol. The left urethra was exposed and isolated after a left lateral incision was made on the abdominal area and skin, muscles and all other layers of the abdominal wall were incised sequentially. In the sham group, the left urethra was only isolated without being ligated or cut off. In all other animals, the left urethra was ligated with No. 4 suture and obstructed followed by closure of the abdominal wall layer by layer. The animals were anaesthetised again with 10% chloral hydrate 10 days later, blood was collected and serum was separated to determine FN levels. The left kidney was removed after thorough rinsing and then fixed in 4% paraformaldehyde buffer. HYP level was determined according to instructions provided with the kit.

The structures appear in SMILES notation.

With `C[C@H]1C[C@@H]2[C@H]([C@@H](O)C[C@@]3(C)[C@H]2CC[C@]3(O)C(=O)CO)[C@@]2(C)C=CC(=O)C=C12` [Methylprednisolone, reference compound], the Serum urea nitrogen in test [1] was determined as 18.21 ± 4.25 mg/dL; in test [2] (4 weeks) it was 15.21 ± 3.25 mg/dL. In addition, the figures for the Serum creatinine in test [2] (4 weeks) and in test [2] (8 weeks) were 1.33 ± 0.13 mg/dL and 1.25 ± 0.17 mg/dL, respectively.
As to `CN(CCOc1ccc(CC2SC(=O)NC2=O)cc1)c1ccccn1` (stereo not drawn) [Rosiglitazone, reference compound], the HYP in test [3] is 1259 ± 153 µg/L.
Turning to `CCOC(=O)[C@H](CCc1ccccc1)N[C@H]1CCc2ccccc2N(CC(=O)O)C1=O` [Benazapril, reference compound], in test [4] (8 weeks), the “24 h urinary protein excretion” value is 19.29 ± 2.11 mg/24 h, the Blood glucose is on record as 21.11 ± 4.55 mmol/L, the Serum urea nitrogen amounted to 9.21 ± 1.62 mg/dL and the creatinine is 0.57 ± 0.07 mg/dL. Also, in test [4] (16 weeks), the “24 h urinary protein excretion” value came to 61.76 ± 6.75 mg/24 h, the Blood glucose was 22.11 ± 4.55 mmol/L, the Serum urea nitrogen is 18.21 ± 3.25 mg/dL and the creatinine is on record as 1.15 ± 0.13 mg/dL. This compound also gave an HYP in test [5] (left kidney, benazapril p.o. 10 mg/kg) of 500 ± 132 µg/g. In test [5] (serum, p.o. 10 mg/kg), this compound had an FN of 17.0 ± 3.6 mg/L.
